Measurements reported in patent US9169254B2, “Spiroimidazolone derivative” (Chugai Seiyaku Kabushiki Kaisha, priority 2009, dated 2015).

Molecular target: T1, human PTH1 receptor (Homo sapiens, UniProt Q03431)
T1 sequence (Q03431 27-593): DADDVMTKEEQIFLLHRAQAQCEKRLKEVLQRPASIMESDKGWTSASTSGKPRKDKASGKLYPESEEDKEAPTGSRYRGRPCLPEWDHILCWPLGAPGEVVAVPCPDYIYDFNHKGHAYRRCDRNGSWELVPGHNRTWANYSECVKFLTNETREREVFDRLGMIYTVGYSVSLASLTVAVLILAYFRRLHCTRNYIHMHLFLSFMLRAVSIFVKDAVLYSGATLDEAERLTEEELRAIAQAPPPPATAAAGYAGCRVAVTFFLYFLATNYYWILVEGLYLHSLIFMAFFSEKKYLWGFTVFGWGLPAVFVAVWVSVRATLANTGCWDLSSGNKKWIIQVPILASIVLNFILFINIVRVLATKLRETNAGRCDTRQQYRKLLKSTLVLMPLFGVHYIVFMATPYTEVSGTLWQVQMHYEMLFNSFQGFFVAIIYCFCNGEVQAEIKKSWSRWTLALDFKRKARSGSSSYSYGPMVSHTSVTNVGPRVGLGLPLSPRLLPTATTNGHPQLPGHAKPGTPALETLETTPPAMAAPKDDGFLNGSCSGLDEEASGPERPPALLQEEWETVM
Test: In vitro cAMP signal activity in HKRK-B7 cells (LLC-PK1 cells overexpressing the human PTH1 receptor)
Format: cell-based
Conditions: HKRK-B7 cells; compound at 1×10^−3 M; […]; 0.1 µM

| SMILES | cAMP production activity (%) |
| --- | --- |
| CC(=O)N(c1ccc(/C=C/S(=O)(=O)N2CCC3(CC2)N=C(c2cccc(OC(F)(F)F)c2)NC3=O)c(C)c1)C1CCN(C(=O)OC(C)(C)C)CC1 [Compound 604, 4-[acetyl-(3-methyl-4-{(E)-2-[4-oxo-2-(3-trifluoromethoxy-phenyl)-1,3,8-triaza-spiro[4.5]dec-1-ene-8-sulfonyl]-vinyl}-phenyl)-amino]-piperidine-1-carboxylic acid tert-butyl ester] | 21 |

Same assay, conditions: HKRK-B7 cells; compound at 1×10^−3 M; cAMP produced as percentage of that produced by hPTH(1-34) at 100 nM

| SMILES | cAMP production activity (%) |
| --- | --- |
| Cc1cc(N2CCC(=O)NC2=O)cc(C)c1/C=C/S(=O)(=O)N1CCC2(CC1)N=C(C1CCC(C)CC1)NC2=O (stereo not shown) [Compound 587, 1-(3,5-dimethyl-4-{(E)-2-[2-(4-methyl-cyclohexyl)-4-oxo-1,3,8-triaza-spiro[4.5]dec-1-ene-8-sulfonyl]-vinyl}-phenyl)-dihydro-pyrimidine-2,4-dione] | 53 |
| Cc1cc(N2NCCC2=O)ccc1/C=C/S(=O)(=O)N1CCC2(CC1)N=C([C@H]1CC[C@H](C)CC1)NC2=O [Compound 588, 2-(4-methyl-cyclohexyl)-8-{(E)-2-[2-methyl-4-(5-oxo-pyrazolidin-1-yl)-phenyl]-ethenesulfonyl}-1,3,8-triaza-spiro[4.5]dec-1-en-4-one] | 77 |
| Cc1cc(N2C(=O)NC(COC(C)(C)C)C2=O)cc(C)c1/C=C/S(=O)(=O)N1CCC2(CC1)N=C([C@H]1CC[C@H](C)CC1)NC2=O (stereo partly shown) [Compound 589, 5-tert-butoxymethyl-3-(3,5-dimethyl-4-{(E)-2-[2-(4-methyl-cyclohexyl)-4-oxo-1,3,8-triaza-spiro[4.5]dec-1-ene-8-sulfonyl]-vinyl}-phenyl)-imidazolidine-2,4-dione] | 22 |
| Cc1cc(S(=O)(=O)NCC(=O)N(C)C)ccc1/C=C/S(=O)(=O)N1CCC2(CC1)N=C(c1cccc(C(F)(F)F)c1)NC2=O [Compound 590, N,N-Dimethyl-2-(3-methyl-4-{(E)-2-[4-oxo-2-(3-trifluoromethyl-phenyl)-1,3,8-triaza-spiro[4.5]dec-1-ene-8-sulfonyl]-vinyl}-benzenesulfonylamino)-acetamide] | 70 |
| Cc1cc(S(=O)(=O)NCc2cccnc2)ccc1/C=C/S(=O)(=O)N1CCC2(CC1)N=C(c1cccc(C(F)(F)F)c1)NC2=O [Compound 591, 3-methyl-4-{(E)-2-[4-oxo-2-(3-trifluoromethyl-phenyl)-1,3,8-triaza-spiro[4.5]dec-1-ene-8-sulfonyl]-vinyl}-N-pyridin-3-ylmethyl-benzenesulfonamide] | 34 |
| Cc1cc(S(=O)(=O)NC2CCC(O)CC2)ccc1/C=C/S(=O)(=O)N1CCC2(CC1)N=C(c1cccc(C(F)(F)F)c1)NC2=O (stereo not shown) [Compound 592, N-(4-hydroxy-cyclohexyl)-3-methyl-4-{(E)-2-[4-oxo-2-(3-trifluoromethyl-phenyl)-1,3,8-triaza-spiro[4.5]dec-1-ene-8-sulfonyl]-vinyl}-benzenesulfonamide] | 87 |
| Cc1cc(S(C)(=O)=O)ccc1/C=C/S(=O)(=O)N1CCC2(CC1)N=C(c1cccc(C(F)(F)F)c1)NC2=O [Compound 593, 8-[(E)-2-(4-methanesulfonyl-2-methyl-phenyl)-ethenesulfonyl]-2-(3-trifluoromethyl-phenyl)-1,3,8-triaza-spiro[4.5]dec-1-en-4-one] | 28 |
| CC(=O)NS(=O)(=O)c1ccc(/C=C/S(=O)(=O)N2CCC3(CC2)N=C(c2cccc(C(F)(F)F)c2)NC3=O)c(C)c1 [Compound 594, N-acetyl-3-methyl-4-{(E)-2-[4-oxo-2-(3-trifluoromethyl-phenyl)-1,3,8-triaza-spiro[4.5]dec-1-ene-8-sulfonyl]-vinyl}-benzenesulfonamide] | 69 |
| Cc1cc(S(=O)(=O)NC(CO)(CO)CO)ccc1/C=C/S(=O)(=O)N1CCC2(CC1)N=C(c1cccc(C(F)(F)F)c1)NC2=O [Compound 595, N-(2-hydroxy-1,1-bis-hydroxymethyl-ethyl)-3-methyl-4-{(E)-2-[4-oxo-2-(3-trifluoromethyl-phenyl)-1,3,8-triaza-spiro[4.5]dec-1-ene-8-sulfonyl]-vinyl}-benzenesulfonamide] | 63 |
| Cc1cc(S(=O)(=O)NC2CCN(Cc3ccccc3)CC2)ccc1/C=C/S(=O)(=O)N1CCC2(CC1)N=C(c1cccc(OC(F)(F)F)c1)NC2=O [Compound 596, N-(1-Benzyl-piperidin-4-yl)-3-methyl-4-{(E)-2-[4-oxo-2-(3-trifluoromethoxy-phenyl)-1,3,8-triaza-spiro[4.5]dec-1-ene-8-sulfonyl]-vinyl}-benzenesulfonamide] | 40 |
| O=C1NC(c2cccc(OC(F)(F)F)c2)=NC12CCN(S(=O)(=O)/C=C/c1ccc3c(ccn3C[C@H](O)CO)c1)CC2 [Compound 597, 8-{(E)-2-[1-((S)-2,3-dihydroxy-propyl)-1H-indol-5-yl]-ethenesulfonyl}-2-(3-trifluoromethoxy-phenyl)-1,3,8-triaza-spiro[4.5]dec-1-en-4-one] | 51 |
| Cc1cc(C(=O)N2CCN(C(C)C)CC2)ccc1/C=C/S(=O)(=O)N1CCC2(CC1)N=C(c1cccc(OC(F)(F)F)c1)NC2=O [Compound 598, 8-{(E)-2-[4-(4-isopropyl-piperazine-1-carbonyl)-2-methyl-phenyl]-ethenesulfonyl}-2-(3-trifluoromethoxy-phenyl)-1,3,8-triaza-spiro[4.5]dec-1-en-4-one] | 74 |
| Cc1cc(S(=O)(=O)NC[C@@H](O)CO)ccc1/C=C/S(=O)(=O)N1CCC2(CC1)N=C(c1cccc(OC(F)(F)F)c1)NC2=O [Compound 599, N—((R)-2,3-dihydroxy-propyl)-3-methyl-4-{(E)-2-[4-oxo-2-(3-trifluoromethoxy-phenyl)-1,3,8-triaza-spiro[4.5]dec-1-ene-8-sulfonyl]-vinyl}-benzenesulfonamide] | 59 |
| O=C1NC(c2cccc(OC(F)(F)F)c2)=NC12CCN(S(=O)(=O)/C=C/c1cc(F)c(OCCC(O)CO)c(F)c1)CC2 (stereo not shown) [Compound 600, 8-{(E)-2-[4-(3,4-dihydroxy-butoxy)-3,5-difluoro-phenyl]-ethenesulfonyl}-2-(3-trifluoromethoxy-phenyl)-1,3,8-triaza-spiro[4.5]dec-1-en-4-one] | 67 |
| Cc1cc(/C=C/S(=O)(=O)N2CCC3(CC2)N=C(c2cccc(OC(F)(F)F)c2)NC3=O)cc(C)c1OCCC(O)CO (stereo not shown) [Compound 601, 8-{(E)-2-[4-(3,4-dihydroxy-butoxy)-3,5-dimethyl-phenyl]-ethenesulfonyl}-2-(3-trifluoromethoxy-phenyl)-1,3,8-triaza-spiro[4.5]dec-1-en-4-one] | 64 |
| Cc1cc(OC2CCN(C(=O)OC(C)(C)C)CC2)ccc1/C=C/S(=O)(=O)N1CCC2(CC1)N=C(c1cccc(OC(F)(F)F)c1)NC2=O [Compound 602, 4-(3-methyl-4-{(E)-2-[4-oxo-2-(3-trifluoromethoxy-phenyl)-1,3,8-triaza-spiro[4.5]dec-1-ene-8-sulfonyl]-vinyl}-phenoxy)-piperidine-1-carboxylic acid tert-butyl ester] | 3.0 |
| CC(=O)N(c1ccc(/C=C/S(=O)(=O)N2CCC3(CC2)N=C(c2cccc(OC(F)(F)F)c2)NC3=O)c(C)c1)C(C)C [Compound 603, N-isopropyl-N-(3-methyl-4-{(E)-2-[4-oxo-2-(3-trifluoromethoxy-phenyl)-1,3,8-triaza-spiro[4.5]dec-1-ene-8-sulfonyl]-vinyl}-phenyl)-acetamide] | 69 |
| Cc1cc(N(CCO)C(N)=O)cc(C)c1/C=C/S(=O)(=O)N1CCC2(CC1)N=C(c1cccc(OC(F)(F)F)c1)NC2=O [Compound 605, 1-(3,5-dimethyl-4-{(E)-2-[4-oxo-2-(3-trifluoromethoxy-phenyl)-1,3,8-triaza-spiro[4.5]dec-1-ene-8-sulfonyl]-vinyl}-phenyl)-1-(2-hydroxy-ethyl)-urea] | 54 |
| Cc1cc(N2C(=O)CC[C@@H]2CNC(C)C)cc(C)c1/C=C/S(=O)(=O)N1CCC2(CC1)N=C(c1cccc(OC(F)(F)F)c1)NC2=O [Compound 606, 8-((E)-2-{4-[(R)-2-(isopropylamino-methyl)-5-oxo-pyrrolidin-1-yl]-2,6-dimethyl-phenyl}-ethenesulfonyl)-2-(3-trifluoromethoxy-phenyl)-1,3,8-triaza-spiro[4.5]dec-1-en-4-one] | 28 |
| CC(=O)N(CCN(C)C)c1cc(C)c(/C=C/S(=O)(=O)N2CCC3(CC2)N=C(c2cccc(OC(F)(F)F)c2)NC3=O)c(C)c1 [Compound 607, N-(2-dimethylamino-ethyl)-N-(3,5-dimethyl-4-{(E)-2-[4-oxo-2-(3-trifluoromethoxy-phenyl)-1,3,8-triaza-spiro[4.5]dec-1-ene-8-sulfonyl]-vinyl}-phenyl)-acetamide] | 6.5 |
| Cc1cc(N(C)C(=O)CN(C)C)cc(C)c1/C=C/S(=O)(=O)N1CCC2(CC1)N=C(c1cccc(OC(F)(F)F)c1)NC2=O [Compound 608, 2-dimethylamino-N-(3,5-dimethyl-4-{(E)-2-[4-oxo-2-(3-trifluoromethoxy-phenyl)-1,3,8-triaza-spiro[4.5]dec-1-ene-8-sulfonyl]-vinyl}-phenyl)-N-methyl-acetamide] | 20 |
